Where “and” joins values, the source holds several entries; their conditions need not be identical. Identical values can stand only once.
What was measured:
[1] = molecular target: T1, c-Met phosphorylation (pY1349) in NCI-H460 cells (Homo sapiens, UniProt P08581); assay: HGF Stimulated Met (pY1349) NCI-H460 Cell-based ELISA
T1 construct: host or cells: NCI-H460
Experimental: HGF Stimulated Met (pY1349) NCI-H460 Cell-based ELISA NCI-H460 cells (purchased from ATCC) are cultured in RPMI 1640 media (Invitrogen) supplemented with 10% Fetal Bovine Scrum (FBS) and plated (prior to becoming 70% confluent) in 96-well flat-bottom plates at a density of 20,000 cells per well in 80 μL volume. The cells are then incubated overnight in a cell culture incubator (5% CO2, 95% Relative Humidity (RH) and 37° C.) and allowed to attach to the plate. The following morning the cells are washed with 2 volumes of a Reduced Serum Media (RSM) (RPMI 1640 media supplemented with 0.5% FBS). After removal of the last wash, 80 µL of RSM is added to each well of the cell plates. The cell plates are incubated for 2.5 hours in a cell culture incubator, and then dosed with compounds. Compound inhibitors are first solubilized at 10 mM in 100% DMSO and then diluted to 100 μM with 2% DMSO RSM. Subsequently compound serial dilutions (1:3) are prepared over a 100 μM to 0.005 μM range. Cells are dosed with the addition of 20 μL of compound stock to produce a final DMSO concentration of 0.4% and a final compound concentration dose range between 20 and 0.001 μM. After dosing with compounds the cells plates are gently agitated to mix and then allowed to incubate for 30 min in a cell culture incubator. After dose completion, the cells are stimulated with the addition of 20 μL per well of Hepatocyte Growth Factor (HGF) at a final concentration of 100 ng/mL in RSM (all wells except MIN wells are stimulated, MIN wells are dosed with 20 μL RSM). After 10 min incubation in a cell culture incubator, the liquid is removed from the cell plate wells, and the cells are lysed by the addition of 50 μL of ice-cold Meso Scale Discovery® (MSD, Gaithersburg, Md.) IX Lysis Buffer (150 mM NaCl, 20 mM Tris, pH7.5, 1 mM EDTA, 1 mM ethylene glycol tetraacetic acid, and 1% TRITON® X-100) supplemented with Phosphatase I and II and Protease inhibitors (Sigma, St. Louis, Mo.). After lysis at RT for 30 min the lysates are transferred to and captured on a MSD® Multi-Spot 96-well. 4-spot PhosphoMet plate that is BSA-blocked (at 30 mg/mL Block A in IX Tris Wash Buffer) and then washed one time with Tris Wash Buffer. After 2 hours capture (at RT) the lysates are removed from the MSD® plate and the plate is washed with IX Tris Wash Buffer. After blotting, 25 μL of 5 nM Sulfo-Tag Anti-Total Met antibody (detection antibody, MSD® prepared in IX Tris Wash Buffer supplemented with 10 mg/mL BSA and 0.1% Blocker D-R (MSD®)) is added to the wells of the MSD® plate. After 1 hour capture (at RT) the MSD® plate wells are washed with IX Tris Wash Buffer, and then 150 μL of IX Read Buffer T (with surfactant, MSD®) is added. Immediately after the addition of the Read Buffer, the plates are analyzed with a SECTOR 6000 MSD® Imager plate reader. Relative IC50 values are determined using MSD activity units by calculating percent inhibition with respect to on-plate “MIN” and “MAX” controls and then fitting the percent inhibition values and ten-point dose response data to a four-parameter logistic equation. This assay has a Minimum Significant Ratio (MSR) of 2.06.

[2] = molecular target: T2, c-Met phosphorylation in SI 14 tumors (human c-Met) (Homo sapiens, UniProt P08581); assay: c-Met In Vivo Target Inhibition Assay (SI 14 tumors in nude mice, phosphor-Met ELISA); conditions: oral gavage, read-out: ED50 (dose that produces 50% inhibition in tumor)
T2 construct: host or cells: SI 14 (S114) cells as subcutaneous tumours in athymic nude mice
Experimental: SI 14 cells (licensed from PHS, over-express both human HGF and human c-Met) are cultured in a growth media (Dulbecco's Modified Eagle Medium) supplemented with 10% fetal calf serum and expanded. Cells are harvested and washed twice with phosphate buffered saline and 2×10^6 cells are mixed with equal volume of BD Matrigel™ matrix (BD Bioscience, Franklin, N.J.), and injected subcutaneous Iy into the flank of nude mice (athymic nude, from Harlan, Indianapolis, Ind.). At day 8 after implant, compounds (formulated in 10% acacia or 1% carboxymethylcellulose/0.5% sodium lauryl sulfate/0.05% antifoam as suspension) are administered to animals by oral gavage at 50 mg/kg. Animals are sacrificed at 2 hours post dose, and tumors are harvested and stored frozen until needed.
Frozen tumors are pulverized using motar-pastel. The pulverized tissues are transferred to a tube containing Lysing Matrix D beads (MP Biomedicals, Solon, Ohio) and 600 μL lysis buffer (RIPA buffer, containing 50 mM Tris-HCl, pH7.4, 150 mM NaCl, 1% NP-40, 0.5% sodium deoxycholate, 0.1% SDS, from Boston Bioproducts). A FastPrep® Cell Disrupter (MP Biomedicals) is used to disrupt the tissue and lyse the cells. […] Protein concentration is determined by Bradford method. Tumor lysates are loaded onto MSD® phosphor-Met ELISA plates and phosphor-c-Met level is determined using the same protocol as H460 cell-based ELISA. […]

U87MG tumors = assay: Xenograft tumor model, U87MG; format: in vivo, human; conditions: BID×35, athymic nude mice
Experimental: (§1) Human glioblastoma cells U87MG, human gastric cancer cells MKN45, human non small cell lung cancer cells H441, and human renal carcinoma cells Caki-1 are expanded in culture, harvested, and injected subcutaneous Iy onto the rear flank of athymic nude mice. Testing compound is prepared in an appropriate vehicle and is administered by oral gavage when tumors are established (7-21 days after implant). Tumor response is determined by tumor volume measurement performed twice a week during the course of treatment. Tumor volume inhibition (% growth inhibition) is calculated by comparing treated groups to a vehicle control group. Body weight is taken as a general measurement of toxicity. […] At 60 mg/kg dose (PO, BID×35), 82% growth inhibition is achieved. At 120 mg/kg dose (PO, BID×35), 92% growth inhibition reaches.

[3] = tested on: U87MG, MKN45, H441 and Caki-1 tumors; assay: Xenograft Tumor Models (U87MG, MKN45, H441, Caki-1); format: in vivo, human; conditions: oral gavage, athymic nude mice
Experimental: as §1

[4] = 0.2 μM compound, single replicates

T1 sequence (P08581 25-1390): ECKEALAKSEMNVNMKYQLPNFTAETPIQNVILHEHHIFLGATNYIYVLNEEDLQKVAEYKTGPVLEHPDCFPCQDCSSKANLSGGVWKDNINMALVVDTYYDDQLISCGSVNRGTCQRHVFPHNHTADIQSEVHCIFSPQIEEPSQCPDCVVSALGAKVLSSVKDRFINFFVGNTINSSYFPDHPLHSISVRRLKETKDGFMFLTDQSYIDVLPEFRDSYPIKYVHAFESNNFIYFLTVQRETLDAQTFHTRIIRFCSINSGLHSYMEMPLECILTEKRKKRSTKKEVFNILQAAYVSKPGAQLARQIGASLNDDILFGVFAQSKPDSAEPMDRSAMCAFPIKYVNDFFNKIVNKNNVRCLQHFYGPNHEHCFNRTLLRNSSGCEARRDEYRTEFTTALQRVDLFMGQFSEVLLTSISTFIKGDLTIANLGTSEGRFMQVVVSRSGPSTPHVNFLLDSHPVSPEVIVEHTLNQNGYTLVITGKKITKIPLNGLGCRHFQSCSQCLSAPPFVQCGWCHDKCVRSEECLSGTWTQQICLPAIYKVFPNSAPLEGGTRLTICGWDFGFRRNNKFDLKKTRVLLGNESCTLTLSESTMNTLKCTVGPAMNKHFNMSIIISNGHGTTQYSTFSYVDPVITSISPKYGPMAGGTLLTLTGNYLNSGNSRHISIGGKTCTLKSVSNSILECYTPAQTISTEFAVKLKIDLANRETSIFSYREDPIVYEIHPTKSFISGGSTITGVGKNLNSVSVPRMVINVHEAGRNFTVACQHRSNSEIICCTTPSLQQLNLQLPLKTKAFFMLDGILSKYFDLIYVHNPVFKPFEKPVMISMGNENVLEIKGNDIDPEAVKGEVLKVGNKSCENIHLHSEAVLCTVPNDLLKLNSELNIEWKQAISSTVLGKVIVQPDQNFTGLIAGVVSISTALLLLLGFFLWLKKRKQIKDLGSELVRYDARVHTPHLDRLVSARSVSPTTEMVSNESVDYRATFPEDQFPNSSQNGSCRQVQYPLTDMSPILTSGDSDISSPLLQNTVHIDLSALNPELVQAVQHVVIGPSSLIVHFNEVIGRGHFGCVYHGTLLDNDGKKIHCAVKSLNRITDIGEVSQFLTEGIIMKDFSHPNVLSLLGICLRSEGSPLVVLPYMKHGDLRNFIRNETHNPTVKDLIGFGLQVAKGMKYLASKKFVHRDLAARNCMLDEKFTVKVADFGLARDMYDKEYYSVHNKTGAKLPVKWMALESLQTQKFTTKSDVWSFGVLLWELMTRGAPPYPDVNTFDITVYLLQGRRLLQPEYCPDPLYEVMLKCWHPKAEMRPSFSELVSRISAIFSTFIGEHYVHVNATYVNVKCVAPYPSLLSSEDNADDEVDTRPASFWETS
T2 sequence (P08581 25-1390): as above

For `O=C(Nc1ccc(Oc2ncnc3cc4c(cc23)OCCOCCOCCO4)c(F)c1)c1c[nH]cc(-c2ccc(F)cc2)c1=O` [Example 1, 5-(4-Fluoro-phenyl)-4-oxo-1,4-dihydro-pyridine-3-carboxylic acid [3-fluoro-4-(7,8,10,11,13,14-hexahydro-6,9,12,15-tetraoxa-1,3-diaza-cyclododeca[b]naphthalen-4-yloxy)-phenyl]-amide], the “Mean (Counts − Blanks)” value ([1]; 0.2 μM compound) was 50, the “Mean of Activity (% Control)” value ([1]; 0.2 μM compound, mean of replicates) was 0 % Control and the “Activity (% Control)” value [1, 4] was 0 % Control. For the same compound, the Counts [1, 4] was 1008 and 895, the IC50 ([1]; NCI-H460 cells, HGF 100 ng/mL, Example 1 value is average of n=6, read-out: IC50 (inhibition of c-Met phosphorylation in cells)) was 35.2 nM and the ED50 [2] was 2.9 mg/kg. For the same compound, the “growth inhibition of U87MG tumors” value (U87MG tumors; 30 mg/kg PO) was 59%, the “growth inhibition of U87MG tumors” value (U87MG tumors; 60 mg/kg PO) was 82% and the “growth inhibition of U87MG tumors” value (U87MG tumors; 120 mg/kg PO) was 92%. For the same compound, the “anti-tumor activity in xenograft models” value [3] was “excellent dose dependent anti-tumor activity” and the melting point was 188 to 190 °C.

Source: patent US9242991B2, “Substituted fused heterocycles as c-Met tyrosine kinase inhibitors” (BETTA PHARMACEUTICALS CO., LTD, priority 2010, dated 2016)
